From ChEMBL document CHEMBL6177992, “A First-in-Class Hepatocyte Nuclear Factor 4 Agonist” (J Med Chem, 2025)

Legend:
[1] = target: T1, Nuclear receptor subfamily 1 group I member 2 (Homo sapiens, UniProt O75469); experiment: Agonist activity at human Gal4-PXR-LBD expressed in HEK293T cells transfected with pFR-Luc/pRLSV40 assessed as relative luminescence at 1 uM measured after 14 to 16 hrs by hybrid reporter gene assay; assay type: cell-based; conditions: time 14-16 hrs
T1 sequence (O75469 whole entry): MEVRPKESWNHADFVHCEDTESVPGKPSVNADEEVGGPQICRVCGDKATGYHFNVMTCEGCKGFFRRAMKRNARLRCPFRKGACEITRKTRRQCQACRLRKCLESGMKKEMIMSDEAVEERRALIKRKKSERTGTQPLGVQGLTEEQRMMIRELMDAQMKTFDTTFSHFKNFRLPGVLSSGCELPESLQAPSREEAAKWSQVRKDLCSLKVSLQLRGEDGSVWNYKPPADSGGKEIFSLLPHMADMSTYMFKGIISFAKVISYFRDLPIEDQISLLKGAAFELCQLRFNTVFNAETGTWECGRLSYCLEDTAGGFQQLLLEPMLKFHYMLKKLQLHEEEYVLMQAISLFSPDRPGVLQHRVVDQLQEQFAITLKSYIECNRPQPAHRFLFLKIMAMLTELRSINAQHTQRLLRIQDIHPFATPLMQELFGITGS

[2] = target: T2, CAR (nuclear receptor subfamily 1 group I member 3) (Homo sapiens, UniProt Q14994); experiment: Agonist activity at human Gal4-CARalpha-LBD expressed in HEK293T cells transfected with pFR-Luc/pRLSV40 assessed as relative luminescence at 1 uM measured after 14 to 16 hrs by hybrid reporter gene assay; assay type: cell-based; conditions: time 14-16 hrs, read-out: Activity
T2 sequence (Q14994 whole entry): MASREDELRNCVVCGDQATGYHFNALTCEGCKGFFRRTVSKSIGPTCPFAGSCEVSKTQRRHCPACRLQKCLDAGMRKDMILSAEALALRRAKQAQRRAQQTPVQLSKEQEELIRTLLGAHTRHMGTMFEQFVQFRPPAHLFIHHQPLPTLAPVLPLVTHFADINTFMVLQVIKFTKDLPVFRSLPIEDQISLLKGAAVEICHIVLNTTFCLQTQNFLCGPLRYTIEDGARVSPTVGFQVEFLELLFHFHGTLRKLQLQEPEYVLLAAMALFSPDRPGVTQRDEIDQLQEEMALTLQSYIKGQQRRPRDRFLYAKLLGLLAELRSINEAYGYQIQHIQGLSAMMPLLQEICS

- Activity [1]: < 20%
- activity at 1 µM [2]: < 20%
SMILES: Cc1ccc(C#Cc2ccc(O)c(C(=O)O)c2)c(Cl)c1
